The record followed here is paper PMC9157788, “Design, Synthesis, and Apoptosis-Promoting Effect Evaluation of Rhopaladins’ Analog 4-Arylidene-5-Oxopyrrolidine Derivatives” (Frontiers in Chemistry, 2022).

The subject of data set [1] is 7402 cells. Description: Annexin V-FITC/PI flow cytometry apoptosis assay, 7402. The format is cell-based, human. Conditions: 48 h; for total apoptosis rate: DMSO control 8.96 ± 3.05%. As to the method: (§1) The effect of RPDPRH on apoptosis was performed using the Annexin V-FITC/PI Apoptosis kit (MultiSciences, China), following the manufacturer’s protocol. The cells were digested, dispersed, and plated into six-well plates with 2 × 10^4 cells/well and treated with RPDPRH (0, 6.25, 12.5, and 25 μM) at various concentrations for 48 h. Upon completion of the treatment, cells were harvested, washed with cool phosphate buffered solution (PBS, Gibco, United States) (0.01 M, pH=7.4), and re-suspended in a 500 μl binding buffer. Annexin V-FITC (5 μl) and PI (10 μl) were added into the cell suspension, and then, the suspension was incubated at room temperature away from light for 5 min. Cells were analyzed by using a flow cytometer (Agilent NovoCyte, China) immediately, and the results of the apoptosis were analyzed by FlowJo software.
A general note: Flow cytometry measures light scatter and fluorescence of single cells or particles in a stream.

A further data set has as its system Bax. Description: Western blot, Bax expression in 7402 cells. In kind it is cell-based, human. The settings on record: 7402, 25 μM, 48 h, vs DMSO control. On the procedure: The experimental steps of the Western blotting assay referred to Lin’s study ([Lin et al., 2020]). After treatment with different concentrations of RPDPRH (0, 6.25, 12.5, and 25 μM) for 48 h, hepatocarcinoma cells were lysed with an ice-cold RIPA protein lysis buffer (Beyotime, China). Total cell lysates were prepared with RIPA lysis buffer containing phosphatase inhibitors (Roche, China) and protease inhibitors (MedChemExpress, United States). Total cell lysates were centrifuged at 10,000 g for 10 min at 4°C to obtain the supernatant. The protein concentration was detected according to the BCA Protein Assay Kit (Beyotime, China). Then, 5× SDS loading buffer (Beyotime, China) was added to the supernatant and boiled at 100°C for 10 min. The obtained protein samples were stored at −80°C.
The protein samples (20 μg) were resolved on 4% concentration glue and 12% separating glue and prepared according to the SDS-PAGE Gel Quick Preparation Kit procedure (Beyotime, China). After electrophoresis at 80 V for 1.5–2 h, the proteins were wet-transferred onto a polyvinylidene difluoride membrane (PVDF, Millipore) at 300 mA for 1–1.5 h. […]
In general terms: In western blotting, separated proteins are transferred to a membrane and probed.

The subject of data set [2] is 7402 cells. The data set is described as follows: MTT cell viability assay, 7402. In kind it is cell-based. Conditions: Homo sapiens, 48 h, read-out: Half inhibitory concentration (IC50), 7402. On the procedure:
HepG2 (human epidermoid hepatocellular carcinoma cell), 7402 (human epidermoid hepatocellular carcinoma cell), C-33A (human epidermoid cervical carcinoma cell), and HeLa (human epidermoid cervical adenocarcinoma cell) were incubated in Dulbecco’s modified Eagle’s medium (DMEM), which was purchased from Gibco (Grand Island, NY, United States). SiHa cells (human epidermoid cervical squamous cell carcinoma) were incubated in minimum essential medium (MEM, also from Gibco). CaSki (human epidermoid cervical carcinoma cell) and LO2 (human normal liver cell) were incubated in minimum essential medium (MEM, also from Gibco). All cells were maintained at 37°C in a humidified incubator with 5% carbon dioxide, and the media contained 10% fetal bovine serum (FBS, Corning, United States) and 1% penicillin–streptomycin antibiotic solution (Corning, United States). SiHa and CaSki were bought from the China Center for Type Culture Collection (CCTCC). The other five types of cancer cell lines were obtained from the Experiment Center of Medicine, Sinopharm Dongfeng Hospital, Hubei University of Medicine. The compounds were dissolved in dimethyl sulfoxide (DMSO, MP Biomedicals, United States), and cisplatin was purchased from Aladdin, Shanghai, China. The control (0 μM) group was treated with DMSO only in the same conditions, and the DMSO content in the medium was less than 0.1%.
Cell viability was measured by a 3-(4,5-dimethylthiazol-2-yl)-2,5-diphenyltetrazolium bromide (MTT, MultiSciences, China) assay. The specific experimental steps referred to our previous research ([Zhu et al., 2020]). For each cell line, cells were digested and seeded in 96-well plates at a density of 1 × 10^3 cells/well. […] Then, the formed formazan crystals were dissolved in DMSO, and the plates were estimated in a […] microplate reader (BioTek Inc., Bio-Tek MQX200) at a wavelength of 490 nm. Optical density (OD) values were obtained, and the inhibition rate and IC50 of each compound on different cells were calculated by GraphPad Prism 8.0.1 software. […]
A general note: Tetrazolium dyes change colour on reduction, which living cells bring about.

The next data set concerns HepG2 cells. Description: Annexin V-FITC/PI flow cytometry apoptosis assay, HepG2. The format is cell-based, human. Conditions: 48 h; for total apoptosis rate: DMSO control 7.73 ± 2.18%. As to the method:
as §1

Data set [3] deals with 7402 cells. The data set is described as follows: Wound healing assay, 7402. In kind it is cell-based, human. Conditions: 48 h. On the procedure:
The experimental procedures were performed according to conventional methods ([Kovaříková et al., 2014]). Hepatocarcinoma cells at the logarithmic growth stage were taken and inoculated into six-well plates with 2 × 10^4 cells/well. When the cell density is about 80%, the cell wound was scratched with pipette tips. Cells were then washed with PBS and added to the cell culture broth containing 1% serum with varying concentrations of RPDPRH (0 μM, 6.25, 12.5, and 25 μM) for 48 h. Pictures were taken at 0 and 48 h under a microscope (100×). Wound healing rate (%) = [(0 h scratch distance−48 h scratch distance)/0 h scratch distance] × 100%.

Each structure is given as a SMILES string.

The compound `O=C1/C(=C/c2ccc(Cl)cc2)CC(/C=C/c2ccc(Cl)cc2)(C(=O)NC2CCCCC2)N1c1ccc(F)cc1` (centres unmarked) [RPDPRH, (2E, 4E)-4-(4-chlorobenzylidene)-2-(4-chlorostyryl)-N-cyclohexyl-1-(4-fluorophenyl)-5-oxopyrrolidine-2-carboxamide] registered a melting point of 128 to 130 °C. In the data set with 7402 cells [1] (7402, 6.25 μM), the “early apoptotic cell (LR) rate” value is 4.37%, the “late apoptotic (UR) rate” value stood at 9.34% and the total apoptosis rate was 13.71 ± 1.30%. Also, in the data set with 7402 cells [1] (7402, 12.5 μM), the “early apoptotic cell (LR) rate” value is reported as 8.53% and the “late apoptotic (UR) rate” value is reported as 15.30%. Also, in the data set on 7402 cells [1] (7402, 25 μM), the “early apoptotic cell (LR) rate” value is on record as 11.40%, the “late apoptotic (UR) rate” value is on record as 24.60% and the total apoptosis rate turned out to be 36.00 ± 2.67%. In the data set on Bax, the “ratio of Bax/Bcl-2” value was “increase obviously”. The “expression of pro-apoptotic protein Bax” value in the data set on Bax (p < 0.05) was “significant increase”. Besides, in the data set on 7402 cells [2], the IC50 is 22.4 µM. Moreover, in the data set with HepG2 cells (HepG2, 6.25 μM), the “early apoptotic cell (LR) rate” value came to 5.53%, the “late apoptotic (UR) rate” value worked out at 5.07% and the total apoptosis rate came out at 10.6 ± 1.49%. Further, in the data set with HepG2 cells (HepG2, 12.5 μM), the “early apoptotic cell (LR) rate” value came out at 14.90%, the “late apoptotic (UR) rate” value is recorded as 21.00% and the total apoptosis rate was determined as 35.90 ± 2.51%. In the data set on HepG2 cells (HepG2, 25 μM), the “early apoptotic cell (LR) rate” value came out at 19.80%, the “late apoptotic (UR) rate” value was found to be 32.30% and the total apoptosis rate came to 52.10 ± 4.49%. The wound healing rate result with 7402 cells [3] (7402, 25 μM, vs DMSO control, p < 0.01) is recorded as “reduced significantly”. Moreover, the wound healing rate result with 7402 cells [3] (7402, 6.25, 12.5 and 25 μM) is “significantly reduced”.

In general, melting point refers to the temperature, or range, at which the solid turns liquid.
